Assay results as given in the supplement of paper PMC10307832.

Experiments:
Assay in all cases: relative viability (nuclei count vs DMSO), 5 days (fraction); higher = more cells survive
PC-3 [JPC-3] = test system: PC-3 [JPC-3]
In short: (§1)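 One day after seeding in 1536-well plates, lung cancer cell lines were dosed by pin tool. Dosing was either single-drug or a fixed anchor-drug dose plus five library-drug doses (not always all listed) in √10 steps. After 5 days, nuclei were stained in one fix-and-stain step and counted on 4× images, and relative viability is the nuclei count of treated wells over that of vehicle wells, given as the median of duplicate plates.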

NCI-H1944 = test system: NCI-H1944
In short: as §1

NCI-H1703 = test system: NCI-H1703
In short: as §1

HCC-44 = test system: HCC-44
In short: as §1

A-427 = test system: A-427
In short: as §1

NCI-H1563 = test system: NCI-H1563
In short: as §1

A549 = test system: A549
In short: as §1

IA-LM = test system: IA-LM
In short: as §1

Row | Compound | relative viability (PC-3 [JPC-3]; first compound 0.08 µM) | relative viability (PC-3 [JPC-3]; first compound 0.253 µM) | relative viability (PC-3 [JPC-3]; first compound 0.8 µM) | relative viability (PC-3 [JPC-3]; first compound 2.53 µM) | relative viability (PC-3 [JPC-3]; first compound 8 µM) | relative viability (NCI-H1944; first compound 0.08 µM) | relative viability (NCI-H1944; first compound 0.253 µM) | relative viability (NCI-H1944; first compound 0.8 µM) | relative viability (NCI-H1944; first compound 2.53 µM) | relative viability (NCI-H1944; first compound 8 µM) | relative viability (NCI-H1703; first compound 0.08 µM) | relative viability (NCI-H1703; first compound 0.253 µM) | relative viability (NCI-H1703; first compound 0.8 µM) | relative viability (NCI-H1703; first compound 8 µM) | relative viability (HCC-44; first compound 0.08 µM) | relative viability (HCC-44; first compound 0.253 µM) | relative viability (HCC-44; first compound 0.8 µM) | relative viability (HCC-44; first compound 2.53 µM) | relative viability (HCC-44; first compound 8 µM) | relative viability (A-427; first compound 0.08 µM) | relative viability (A-427; first compound 0.253 µM) | relative viability (A-427; first compound 0.8 µM) | relative viability (A-427; first compound 2.53 µM) | relative viability (A-427; first compound 8 µM) | relative viability (NCI-H1563; first compound 0.08 µM) | relative viability (NCI-H1563; first compound 0.253 µM) | relative viability (NCI-H1563; first compound 0.8 µM) | relative viability (NCI-H1563; first compound 2.53 µM) | relative viability (NCI-H1563; first compound 8 µM) | relative viability (A549; first compound 0.08 µM) | relative viability (A549; first compound 0.253 µM) | relative viability (A549; first compound 0.8 µM) | relative viability (A549; first compound 2.53 µM) | relative viability (A549; first compound 8 µM) | relative viability (IA-LM; first compound 0.08 µM) | relative viability (IA-LM; first compound 0.253 µM) | relative viability (IA-LM; first compound 0.8 µM) | relative viability (IA-LM; first compound 2.53 µM) | relative viability (IA-LM; first compound 8 µM)
1 | C=C1C(=O)O[C@@H](CCCCCCCC)[C@@H]1C(=O)O [C-75] + NC(=O)Nc1cc(-c2cccc(F)c2)sc1C(=O)N[C@H]1CCCNC1 [AZD7762] (partner 0.2 µM) | 0.845 | 0.801 | 0.801 | 0.6 | 0.753 | 0.566 | 0.648 | 0.381 | 0.621 | 0.517 | 0.125 | 0.126 | 0.115 | 0.149 | 1.03 | 1.05 | 0.999 | 0.953 | 1.08 | 0.698 | 0.825 | 0.537 | 0.72 | 0.536 |  |  |  |  |  |  |  |  |  |  |  |  |  |  | 
2 | C=C1C(=O)O[C@@H](CCCCCCCC)[C@@H]1C(=O)O [C-75] + Nc1nc2[nH]cc(CCc3ccc(C(=O)N[C@@H](CCC(=O)O)C(=O)O)cc3)c2c(=O)[nH]1 [Pemetrexed] (partner 0.2 µM) | 1.07 | 0.979 | 0.81 | 0.874 | 1.14 | 0.645 | 0.784 | 0.509 | 0.564 | 0.57 |  |  |  |  | 0.58 | 0.698 | 0.683 | 0.572 | 0.634 | 0.949 | 0.774 | 0.813 | 0.71 | 0.871 | 0.8 | 0.915 | 0.753 | 0.666 | 0.924 |  |  |  |  |  |  |  |  |  | 
3 | C=C1C(=O)O[C@@H](CCCCCCCC)[C@@H]1C(=O)O [C-75] + Nc1ncn([C@H]2C[C@H](O)[C@@H](CO)O2)c(=O)n1 [Decitabine] (partner 2 µM) | 0.78 | 0.798 | 0.782 | 0.793 | 0.91 | 0.423 | 0.471 | 0.35 | 0.368 | 0.461 |  |  |  |  | 1.02 | 0.922 | 0.946 | 0.8 | 0.903 | 0.607 | 0.533 | 0.487 | 0.428 | 0.512 |  |  |  |  |  | 0.27 | 0.255 | 0.273 | 0.35 | 0.215 |  |  |  |  | 
4 | C=C1C(=O)O[C@@H](CCCCCCCC)[C@@H]1C(=O)O [C-75] + O=C(CCCCCCC(=O)Nc1ccccc1)NO [Vorinostat] (partner 1 µM) | 0.837 | 0.819 | 0.415 | 0.583 | 0.764 | 0.571 | 0.591 | 0.475 | 0.42 | 0.483 |  |  |  |  | 1.1 | 0.994 | 1.07 | 1.13 | 1.07 | 0.851 | 0.822 | 0.615 | 0.755 | 0.852 |  |  |  |  |  |  |  |  |  |  | 0.886 | 1.35 | 0.935 | 1.25 | 0.8
